How the values were obtained:
Experiment in all cases: relative viability (nuclei count vs DMSO), 5 days (fraction); higher = more cells survive
ABC-1 = system: ABC-1
Method in brief: (§1)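 Lung cancer cell lines were pin-tool dosed in 1536-well plates on the day after seeding, with either a lone drug or a fixed anchor-drug dose plus five library-drug doses (not always all listed) in √10 steps. Nuclei were counted on 4× images after 5 days. Relative viability is the ratio of treated-well to vehicle-well nuclei counts, with each value a median of duplicate plates.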

CAL-12T = system: CAL-12T
Method in brief: as §1

COR-L 105 = system: COR-L 105
Method in brief: as §1

ChaGo-K-1 = system: ChaGo-K-1
Method in brief: as §1

EMC-BAC-2 = system: EMC-BAC-2
Method in brief: as §1

EPLC-272H = system: EPLC-272H
Method in brief: as §1

HCC-15 = system: HCC-15
Method in brief: as §1

HCC-78 = system: HCC-78
Method in brief: as §1

HOP-62 = system: HOP-62
Method in brief: as §1

LXF-289 = system: LXF-289
Method in brief: as §1

NCI-H1666 = system: NCI-H1666
Method in brief: as §1

NCI-H1755 = system: NCI-H1755
Method in brief: as §1

NCI-H1915 = system: NCI-H1915
Method in brief: as §1

NCI-H1975 = system: NCI-H1975
Method in brief: as §1

NCI-H1993 = system: NCI-H1993
Method in brief: as §1

NCI-H2023 = system: NCI-H2023
Method in brief: as §1

NCI-H2085 = system: NCI-H2085
Method in brief: as §1

NCI-H2126 = system: NCI-H2126
Method in brief: as §1

NCI-H3122 = system: NCI-H3122
Method in brief: as §1

NCI-H322M = system: NCI-H322M
Method in brief: as §1

NCI-H441 = system: NCI-H441
Method in brief: as §1

UMC-11 = system: UMC-11
Method in brief: as §1

`NC(=O)Nc1cc(-c2cccc(F)c2)sc1C(=O)N[C@H]1CCCNC1` [AZD7762] + CC(C)C[C@H](NC(=O)[C@H](Cc1ccccc1)NC(=O)c1cnccn1)B(O)O [Bortezomib] (partner 0.002 µM) gave a relative viability (ABC-1; first compound 0.01 µM) of 0.276, a relative viability (ABC-1; first compound 0.03162 µM) of 0.389 and a relative viability (ABC-1; first compound 0.1 µM) of 0.3. For the same compound, the relative viability (ABC-1; first compound 0.3162 µM) was 0.26, the relative viability (ABC-1; first compound 1 µM) was 0.202 and the relative viability (CAL-12T; first compound 0.01 µM) was 0.96. The relative viability (CAL-12T; first compound 0.03162 µM) was 1.06, the relative viability (CAL-12T; first compound 0.1 µM) was 0.931 and the relative viability (CAL-12T; first compound 0.3162 µM) was 0.641. It also gave a relative viability (CAL-12T; first compound 1 µM) of 0.23, a relative viability (COR-L 105; first compound 0.01 µM) of 0.904 and a relative viability (COR-L 105; first compound 0.03162 µM) of 0.803. It also gave a relative viability (COR-L 105; first compound 0.1 µM) of 0.836, a relative viability (COR-L 105; first compound 0.3162 µM) of 0.389 and a relative viability (COR-L 105; first compound 1 µM) of 0.356. For the same compound, the relative viability (ChaGo-K-1; first compound 0.01 µM) was 0.861, the relative viability (ChaGo-K-1; first compound 0.03162 µM) was 1.01 and the relative viability (ChaGo-K-1; first compound 0.1 µM) was 0.961. For the same compound, the relative viability (ChaGo-K-1; first compound 0.3162 µM) was 0.958, the relative viability (ChaGo-K-1; first compound 1 µM) was 0.865 and the relative viability (EMC-BAC-2; first compound 0.01 µM) was 1.12. For the same compound, the relative viability (EMC-BAC-2; first compound 0.03162 µM) was 1.08, the relative viability (EMC-BAC-2; first compound 0.1 µM) was 1.09 and the relative viability (EMC-BAC-2; first compound 0.3162 µM) was 1.15. The relative viability (EMC-BAC-2; first compound 1 µM) was 1.12, the relative viability (EPLC-272H; first compound 0.01 µM) was 0.81 and the relative viability (EPLC-272H; first compound 0.03162 µM) was 1.01. The relative viability (EPLC-272H; first compound 0.1 µM) was 1.02, the relative viability (EPLC-272H; first compound 0.3162 µM) was 0.828 and the relative viability (EPLC-272H; first compound 1 µM) was 0.992. The relative viability (HCC-15; first compound 0.01 µM) was 1.01, the relative viability (HCC-15; first compound 0.03162 µM) was 0.95 and the relative viability (HCC-15; first compound 0.1 µM) was 0.898. It also gave a relative viability (HCC-15; first compound 0.3162 µM) of 0.937, a relative viability (HCC-15; first compound 1 µM) of 0.986 and a relative viability (HCC-78; first compound 0.01 µM) of 0.561. It also gave a relative viability (HCC-78; first compound 0.03162 µM) of 0.528, a relative viability (HCC-78; first compound 0.1 µM) of 0.526 and a relative viability (HCC-78; first compound 0.3162 µM) of 0.62. For the same compound, the relative viability (HCC-78; first compound 1 µM) was 0.391, the relative viability (HOP-62; first compound 0.01 µM) was 0.817 and the relative viability (HOP-62; first compound 0.03162 µM) was 0.605. It also gave a relative viability (HOP-62; first compound 0.1 µM) of 0.491, a relative viability (HOP-62; first compound 0.3162 µM) of 0.725 and a relative viability (HOP-62; first compound 1 µM) of 0.43. It also gave a relative viability (LXF-289; first compound 0.01 µM) of 0.918, a relative viability (LXF-289; first compound 0.03162 µM) of 0.947 and a relative viability (LXF-289; first compound 0.1 µM) of 1.07. It also gave a relative viability (LXF-289; first compound 0.3162 µM) of 1, a relative viability (LXF-289; first compound 1 µM) of 1.12 and a relative viability (NCI-H1666; first compound 0.01 µM) of 0.906. For the same compound, the relative viability (NCI-H1666; first compound 0.03162 µM) was 0.906, the relative viability (NCI-H1666; first compound 0.1 µM) was 1.13 and the relative viability (NCI-H1666; first compound 0.3162 µM) was 0.848. For the same compound, the relative viability (NCI-H1666; first compound 1 µM) was 0.688, the relative viability (NCI-H1755; first compound 0.01 µM) was 0.919 and the relative viability (NCI-H1755; first compound 0.03162 µM) was 1.03. The relative viability (NCI-H1755; first compound 0.1 µM) was 1.05, the relative viability (NCI-H1755; first compound 0.3162 µM) was 0.926 and the relative viability (NCI-H1755; first compound 1 µM) was 0.384. For the same compound, the relative viability (NCI-H1915; first compound 0.01 µM) was 0.989, the relative viability (NCI-H1915; first compound 0.03162 µM) was 0.99 and the relative viability (NCI-H1915; first compound 0.1 µM) was 1.03. The relative viability (NCI-H1915; first compound 0.3162 µM) was 1.02, the relative viability (NCI-H1915; first compound 1 µM) was 0.959 and the relative viability (NCI-H1975; first compound 0.01 µM) was 0.468. The relative viability (NCI-H1975; first compound 0.03162 µM) was 0.44, the relative viability (NCI-H1975; first compound 0.1 µM) was 0.417 and the relative viability (NCI-H1975; first compound 0.3162 µM) was 0.399. The relative viability (NCI-H1975; first compound 1 µM) was 0.272, the relative viability (NCI-H1993; first compound 0.01 µM) was 1.2 and the relative viability (NCI-H1993; first compound 0.03162 µM) was 1.08. The relative viability (NCI-H1993; first compound 0.1 µM) was 1.07, the relative viability (NCI-H1993; first compound 0.3162 µM) was 1.36 and the relative viability (NCI-H1993; first compound 1 µM) was 0.841. It also gave a relative viability (NCI-H2023; first compound 0.01 µM) of 0.82, a relative viability (NCI-H2023; first compound 0.03162 µM) of 0.904 and a relative viability (NCI-H2023; first compound 0.1 µM) of 0.465. It also gave a relative viability (NCI-H2023; first compound 0.3162 µM) of 0.283, a relative viability (NCI-H2023; first compound 1 µM) of 0.104 and a relative viability (NCI-H2085; first compound 0.01 µM) of 1.11. The relative viability (NCI-H2085; first compound 0.03162 µM) was 1.14, the relative viability (NCI-H2085; first compound 0.1 µM) was 1.11 and the relative viability (NCI-H2085; first compound 0.3162 µM) was 1.14. It also gave a relative viability (NCI-H2085; first compound 1 µM) of 0.887, a relative viability (NCI-H2126; first compound 0.01 µM) of 1.06 and a relative viability (NCI-H2126; first compound 0.03162 µM) of 1.11. For the same compound, the relative viability (NCI-H2126; first compound 0.1 µM) was 1.18, the relative viability (NCI-H2126; first compound 0.3162 µM) was 1.2 and the relative viability (NCI-H2126; first compound 1 µM) was 1.07. It also gave a relative viability (NCI-H3122; first compound 0.01 µM) of 1.04, a relative viability (NCI-H3122; first compound 0.03162 µM) of 1.01 and a relative viability (NCI-H3122; first compound 0.1 µM) of 1.05. The relative viability (NCI-H3122; first compound 0.3162 µM) was 0.966, the relative viability (NCI-H3122; first compound 1 µM) was 1.09 and the relative viability (NCI-H322M; first compound 0.01 µM) was 1.09. The relative viability (NCI-H322M; first compound 0.03162 µM) was 1.26, the relative viability (NCI-H322M; first compound 0.1 µM) was 1.36 and the relative viability (NCI-H322M; first compound 0.3162 µM) was 1.39. For the same compound, the relative viability (NCI-H322M; first compound 1 µM) was 1.33, the relative viability (NCI-H441; first compound 0.01 µM) was 1.13 and the relative viability (NCI-H441; first compound 0.03162 µM) was 0.972. The relative viability (NCI-H441; first compound 0.1 µM) was 0.313, the relative viability (NCI-H441; first compound 0.3162 µM) was 0.456 and the relative viability (NCI-H441; first compound 1 µM) was 0.548. The relative viability (UMC-11; first compound 0.01 µM) was 0.692, the relative viability (UMC-11; first compound 0.03162 µM) was 0.585 and the relative viability (UMC-11; first compound 0.1 µM) was 0.409. It also gave a relative viability (UMC-11; first compound 0.3162 µM) of 0.632 and a relative viability (UMC-11; first compound 1 µM) of 0.435.
